Experimental findings from patent US7294633B2, “Oxazolo-and furopyrimidines and their use in medicaments against tumors” (Novartis AG, priority 2001, dated 2007) are described below.

Usually melting point stands for the temperature of the solid-liquid transition.

As for `C[C@@H](Nc1ncnc2oc(-c3cccc(N)c3)cc12)c1ccccc1` [Example 13, 4-(1R-phenylethylamino)-6-(3-aminophenyl)furo[2,3-d]pyrimidine], the melting point was 64 to 84 °C.
